From paper PMC5085765, “Discovery of Potent Carbonic Anhydrase and Acetylcholinesterase Inhibitors: 2-Aminoindan β-Lactam Derivatives” (International Journal of Molecular Sciences, 2016)

Legend:
hCA I = biological target: T1, hCA I (Homo sapiens, UniProt P00915); experiment: hCA I inhibition, esterase assay with p-nitrophenylacetate as substrate; assay type: biochemical; details: NPA substrate; for Ki: Lineweaver-Burk plots; for IC50: purified from human erythrocytes
T1 construct: from tissue; host or cells: human erythrocytes
Description: (§1) Erythrocytes were obtained from the Research Hospital at Atatürk University. The red cells were haemolysed with ice-cold water after washing with 0.9% NaCl. The hemolysate was applied to the prepared Sepharose-4B-tyrosine-sulfanylamide affinity gel. Both CA isoenzymes were purified by Sepharose-4B-L-tyrosine-sulfanilamide affinity chromatography in a single step [58, 59, 60]. Sepharose-4B-L-tyrosine-sulfanilamide was prepared according to a previous method. Thus, homogenate solution acidity was adjusted and supernatant was transferred to the previously prepared Sepharose-4B-L-tyrosine-sulphanilamide affinity column. The proteins flow in the column eluates was spectrophotometrically determined at 280 nm. All purification steps were performed at 4 °C. Protein quantity was determined at 595 nm according to the Bradford method. Bovine serum albumin was used as the standard protein [64, 65, 66]. To monitor purification of both isoenzymes, sodium dodecyl sulphate-polyacrylamide gel electrophoresis (SDS-PAGE) was used according to the procedure of Laemmli. In this application, the imaging method was performed in 10% and 3% acrylamide for the running and the stacking gel, respectively, with 0.1% SDS [68, 69, 70].
(§2) Enzyme activity was determined hydrolysis of p-nitrophenylacetate (PNA) to p-nitrophenolate at 348 nm according to the method of Verpoorte et al. and described previously. The inhibitory effects of β-lactam derivatives 2a–k were examined. To obtain the half maximal inhibitory concentration (IC50) values, CA I, and II activity was measured in the presence of β-lactam derivatives at different cuvette concentrations. Activity (%)-[β-lactam] graph was drawn for each of the β-lactam derivatives 2a–k. To determine Ki values, three different β-lactam derivative concentrations were tested. In these experiments, different substrate (PNA) concentrations were used and Lineweaver-Burk curves were drawn as previously described.

hCA II = biological target: T2, hCA II (Homo sapiens, UniProt P00918); experiment: hCA II inhibition, esterase assay with p-nitrophenylacetate as substrate; assay type: biochemical; details: NPA substrate; for Ki: Lineweaver-Burk plots; for IC50: purified from human erythrocytes
T2 construct: from tissue; host or cells: human erythrocytes
Description: as §1, §2

T1 sequence (P00915 whole entry): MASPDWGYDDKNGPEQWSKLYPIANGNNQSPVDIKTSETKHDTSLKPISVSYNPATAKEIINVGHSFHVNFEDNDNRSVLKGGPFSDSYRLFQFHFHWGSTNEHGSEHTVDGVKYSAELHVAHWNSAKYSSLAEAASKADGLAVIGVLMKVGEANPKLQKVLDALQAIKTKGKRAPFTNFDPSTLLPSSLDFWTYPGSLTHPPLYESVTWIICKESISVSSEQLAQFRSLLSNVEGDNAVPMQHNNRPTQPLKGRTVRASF

SMILES | Ki (hCA I) | IC50 (hCA I) | Ki (hCA II) | IC50 (hCA II)
COc1cccc([C@@H]2[C@H](OC(C)=O)C(=O)N2C2Cc3ccccc3C2)c1 (relative stereo) [Compound 2b, (3S*,4R*)-1-(2,3-Dihydro-1H-inden-2-yl)-2-(3-methoxyphenyl)-4-oxoazetidin-3-yl acetate] | 1.41 ± 0.547 nM | 2.3 nM | 3.15 ± 1.14 nM | 6.42 nM
CC(=O)OC1C(=O)N(C2Cc3ccccc3C2)C1c1ccc(Br)cc1 (stereo not drawn) [Compound 2ı, (3S*,4R*)-2-(4-Bromophenyl)-1-(2,3-dihydro-1H-inden-2-yl)-4-oxoazetidin-3-yl acetate] | 0.97 ± 0.245 nM | 2.55 nM | 0.93 ± 0.295 nM | 4.03 nM
CC(=O)O[C@@H]1C(=O)N(C2Cc3ccccc3C2)[C@@H]1c1ccc(F)cc1 (relative stereo) [Compound 2k, (3S*,4R*)-1-(2,3-Dihydro-1H-inden-2-yl)-2-(4-fluorophenyl)-4-oxoazetidin-3-yl acetate] | 0.94 ± 0.43 nM | 2.5 nM | 1.34 ± 0.539 nM | 6.86 nM
CC(=O)O[C@@H]1C(=O)N(C2Cc3ccccc3C2)[C@@H]1c1ccccc1[N+](=O)[O-] (relative stereo) [Compound 2j, (3S*,4R*)-1-(2,3-Dihydro-1H-inden-2-yl)-2-(2-nitrophenyl)-4-oxoazetidin-3-yl acetate] | 1.09 ± 0.136 nM | 4.81 nM | 2.88 ± 1.17 nM | 5.02 nM
CC(=O)O[C@@H]1C(=O)N(C2Cc3ccccc3C2)[C@@H]1c1ccccc1Br (relative stereo) [Compound 2h, (3S*,4R*)-2-(2-Bromophenyl)-1-(2,3-dihydro-1H-inden-2-yl)-4-oxoazetidin-3-yl acetate] | 0.91 ± 0.143 nM | 2.65 nM | 2.19 ± 0.921 nM | 5.21 nM
CC(=O)O[C@@H]1C(=O)N(C2Cc3ccccc3C2)[C@@H]1c1cccc(C)c1 (relative stereo) [Compound 2d, (3S*,4R*)-1-(2,3-Dihydro-1H-inden-2-yl)-2-oxo-4-m-tolylazetidin-3-yl acetate] | 1.49 ± 0.29 nM | 0.231 nM | 3.26 ± 0.708 nM | 4.18 nM
CC(=O)O[C@@H]1C(=O)N(C2Cc3ccccc3C2)[C@@H]1c1ccccc1 (relative stereo) [Compound 2a, (3S*,4R*)-1-(2,3-Dihydro-1H-inden-2-yl)-2-oxo-4-phenylazetidin-3-yl acetate] | 0.44 ± 0.115 nM | 0.612 nM | 3.54 ± 0.405 nM | 5.21 nM
CC(=O)O[C@@H]1C(=O)N(C2Cc3ccccc3C2)[C@@H]1c1cccc(Cl)c1 (relative stereo) [Compound 2e, (3S*,4R*)-2-(3-Chlorophenyl)-1-(2,3-dihydro-1H-inden-2-yl)-4-oxoazetidin-3-yl acetate] | 6.29 ± 2.07 nM | 3.98 nM | 8.34 ± 3.53 nM | 5.83 nM
CC(=O)O[C@@H]1C(=O)N(C2Cc3ccccc3C2)[C@@H]1c1cccc(Br)c1 (relative stereo) [Compound 2g, (3S*,4R*)-2-(3-Bromophenyl)-1-(2,3-dihydro-1H-inden-2-yl)-4-oxoazetidin-3-yl acetate] | 0.35 ± 0.105 nM | 0.652 nM | 3.39 ± 1.16 nM | 3.81 nM
CC(=O)O[C@@H]1C(=O)N(C2Cc3ccccc3C2)[C@@H]1c1ccc(Cl)c(Cl)c1 (relative stereo) [Compound 2f, (3S*,4R*)-2-(3,4-Dichlorophenyl)-1-(2,3-dihydro-1H-inden-2-yl)-4-oxoazetidin-3-yl acetate] | 1.16 ± 0.514 nM | 1.63 nM | 1.5 ± 0.421 nM | 5.97 nM
CC(=O)O[C@@H]1C(=O)N(C2Cc3ccccc3C2)[C@@H]1c1ccc(C)cc1 (relative stereo) [Compound 2c, (3S*,4R*)-1-(2,3-Dihydro-1H-inden-2-yl)-2-oxo-4-p-tolylazetidin-3-yl acetate] | 1.5 ± 0.657 nM | 2.11 nM | 2.96 ± 0.157 nM | 3.71 nM
